The assay deals with drug-resistant Mycobacterium tuberculosis. The note with it: 5 micrograms per ml.

Where no end group is shown, it is not given here.

As to LEEEEEAYGWMDF-NH2 [Minigastrin I], the “% inhibition” value came to 0.0%.

These data come from US20100210558A1, “MINIGASTRIN AS A THERAPEUTIC AGENT” (priority 2007, published 2010).
